Measured values taken from ChEMBL document CHEMBL5154916, “Multiparameter Optimization of Naphthyridine Derivatives as Selective α5-GABAA Receptor Negative Allosteric Modulators” (J Med Chem, 2022).
In brackets after ≈: the same amount, converted by molar mass. Activity calls are given as the source filed them. The calls are words filed in the database; no cut-off is given here.

Experiments:
Rattus norvegicus [1] = assay: Pro-cognitive activity in neonatal PCP-impaired social recognition Wistar rat model assessed as time spent in recognition of new juveniles at 3 mg/kg, po administered 30 min before acquisition by social recognition test; type: functional, organism-based
[2] = Clearance in Wistar rat plasma at 1 mg/kg, iv by HPLC-MS/MS analysis; type: ADME, organism-based
Rattus norvegicus [3] = assay: Pro-cognitive activity in po dosed subchronic PCP-induced cognitive impairment associated schizophrenia Wistar rat model assessed as reversal of PCP-induced cognitive deficit administered 30 mins prior to T1 phase by NOR test; type: functional; details: 0.5 h, read-out: MED
[4] = target: T1, GABA-A receptor; alpha-5/beta-3/gamma-2 (Homo sapiens) (UniProt P18507+P28472+P31644); assay: Negative allosteric modulation activity at human recombinant alpha5beta3gamma2 GABAA receptor stably expressed in HEK293 cells assessed as modulation at alpha5 subunit at 10 uM by Patch clamp method; type: cell-based; details: filed as negative allosteric modulator
[5] = […] in po dosed PTZ-induced seizure mouse model assessed as NOAEL by seizure test; type: organism-based; details: in vivo
[6] = target: T2, GABA-A receptor; alpha-1/beta-3/gamma-2 (Homo sapiens) (UniProt P14867+P18507+P28472); assay: Negative allosteric modulation activity at human recombinant alpha1beta3gamma2 GABAA receptor stably expressed in HEK293 cells assessed as modulation at alpha1 subunit at 10 uM by Patch clamp method; type: cell-based; details: filed as negative allosteric modulator
[7] = target: T2, GABA-A receptor; alpha-1/beta-3/gamma-2 (Homo sapiens); assay: Negative allosteric modulation activity at human recombinant alpha1beta3gamma2 GABAA receptor stably expressed in HEK293 cells assessed as modulation at alpha5 subunit by Patch clamp method; type: cell-based; details: filed as negative allosteric modulator
[8] = Tmax in Wistar rat total plasma at 1 mg/kg, po by HPLC-MS/MS analysis; type: ADME, organism-based
[9] = Half life in Wistar rat total plasma at 1 mg/kg, po by HPLC-MS/MS analysis; type: ADME, organism-based
[10] = Ratio of drug level in brain to plasma in Wistar rat at 1 mg/kg, po or 1 mg/kg, iv by HPLC-MS/MS analysis; type: ADME, organism-based; details: brain and plasma, read-out: BPR
[11] = Metabolic stability in guinea pig hepatocyte assessed as intrinsic clearance measured per 10^6 cells; type: ADME, cell-based, Cavia porcellus; details: hepatocytes, read-out: CLH
[12] = Plasma protein binding in guinea pig; type: ADME, cell-free, Cavia porcellus; details: read-out: PPB (converted)
[13] = Ratio of drug level in brain to plasma in Wistar rat at 1 mg/kg, iv by HPLC-MS/MS analysis; type: ADME, organism-based; details: brain and plasma, read-out: BPR
[14] = Bioavailability in female dog at 10 mg/kg, po or 3 mg/kg, iv by HPLC-MS/MS analysis; type: ADME, organism-based, Canis lupus familiaris; details: in vivo
[15] = Thermodynamic solubility of the compound at pH 5; type: physicochemical; details: buffer, read-out: Therm_solubility
[16] = […] in po dosed Wister rat assessed as motor impairment by assessing NOAEL by spontaneous motor activity test; type: organism-based; details: Wistar, in vivo
[17] = Bioavailability in Wistar rat at 1 mg/kg,po or 1 mg/kg, iv by HPLC-MS/MS analysis; type: ADME, organism-based; details: in vivo
[18] = target: T1, GABA-A receptor; alpha-5/beta-3/gamma-2 (Homo sapiens); assay: Negative allosteric modulation activity at human recombinant alpha5beta3gamma2 GABAA receptor stably expressed in HEK293 cells assessed as modulation at alpha5 subunit at 1 uM by Patch clamp method; type: cell-based; details: filed as negative allosteric modulator
[19] = Thermodynamic solubility of the compound at pH 7.4; type: physicochemical; details: buffer, read-out: Therm_solubility
Homo sapiens = species: Homo sapiens; assay: Selectivity ratio of Ki for human alpha1GABAA receptor to Ki for alpha2 GABAA receptor
Cytochrome P450 2C9 = Cytochrome P450 2C9 (Homo sapiens, UniProt P11712); assay: Inhibition of CYP2C9 (unknown origin); type: ADME
[20] = Metabolic stability in human liver microsomes assessed as intrinsic clearance at 2.5 uM; type: ADME, Microsome; details: read-out: CLH
[21] = Plasma protein binding in dog; type: ADME, cell-free, Canis lupus familiaris; details: read-out: PPB (converted)
[22] = Free plasma concentration in subchronic PCP-induced cognitive impairment associated schizophrenia Wistar rat model at 10 mg/kg, po measured at 1.5 hr post dose by HPLC-MS/MS analysis; type: ADME, organism-based; details: in vivo
Cytochrome P450 3A4 = Cytochrome P450 3A4 (Homo sapiens, UniProt P08684); assay: Inhibition of CYP3A4 (unknown origin); type: ADME
[23] = Apparent permeability in human Caco2 cells assessed as permeability damage ratio at 1 uM by HPLC-UV analysis; type: ADME, cell-based; details: caco-2, 1 µM
[24] = Plasma protein binding in human; type: ADME, cell-free; details: read-out: PPB (converted)
[25] = Plasma protein binding in rat; type: ADME, cell-free; details: read-out: PPB (converted)
[26] = Volume of distribution in Wistar rat plasma at 1 mg/kg, iv by HPLC-MS/MS analysis; type: ADME, organism-based
Cytochrome P450 1A2 = target: T3, Cytochrome P450 1A2 (Homo sapiens, UniProt P05177); assay: Inhibition of CYP1A2 (unknown origin); type: ADME
T3 sequence (P05177 whole entry): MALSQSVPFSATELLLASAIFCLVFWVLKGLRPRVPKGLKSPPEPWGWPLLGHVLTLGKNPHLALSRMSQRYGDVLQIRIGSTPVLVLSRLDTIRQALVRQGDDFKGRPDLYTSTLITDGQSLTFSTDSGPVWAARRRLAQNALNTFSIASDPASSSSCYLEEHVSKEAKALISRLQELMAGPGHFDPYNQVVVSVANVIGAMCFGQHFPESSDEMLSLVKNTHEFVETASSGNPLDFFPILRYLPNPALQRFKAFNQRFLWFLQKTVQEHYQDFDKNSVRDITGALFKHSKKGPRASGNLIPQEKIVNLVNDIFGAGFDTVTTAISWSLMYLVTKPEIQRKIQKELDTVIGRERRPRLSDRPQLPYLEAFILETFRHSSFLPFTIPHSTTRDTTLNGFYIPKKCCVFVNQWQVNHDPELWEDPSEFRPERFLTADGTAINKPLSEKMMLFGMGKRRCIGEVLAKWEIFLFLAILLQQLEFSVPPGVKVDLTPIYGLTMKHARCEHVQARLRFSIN

[27] = Toxicity in po dosed Wistar rat assessed NOAEL by 4 days toxicology study; type: organism-based; details: in vivo, time 4 day
[28] = Cardiovascular toxicity in po dosed guinea pig assessed as NOAEL; type: organism-based, Cavia porcellus; details: in vivo
Rattus norvegicus [29] = assay: Pro-cognitive activity in po dosed neonatal PCP-impaired social recognition Wistar rat model assessed as time spent social recognition administered 30 min before acquisition by social recognition test; type: functional; details: 0.5 h, read-out: MED
[30] = Apparent permeability in human Caco-2 cells at 1 uM by HPLC-UV analysis; type: ADME, cell-based
[31] = Half life in Wistar rat total plasma at 1 mg/kg, iv by HPLC-MS/MS analysis; type: ADME, organism-based

Sequence of Cytochrome P450 3A4 (P08684 whole entry): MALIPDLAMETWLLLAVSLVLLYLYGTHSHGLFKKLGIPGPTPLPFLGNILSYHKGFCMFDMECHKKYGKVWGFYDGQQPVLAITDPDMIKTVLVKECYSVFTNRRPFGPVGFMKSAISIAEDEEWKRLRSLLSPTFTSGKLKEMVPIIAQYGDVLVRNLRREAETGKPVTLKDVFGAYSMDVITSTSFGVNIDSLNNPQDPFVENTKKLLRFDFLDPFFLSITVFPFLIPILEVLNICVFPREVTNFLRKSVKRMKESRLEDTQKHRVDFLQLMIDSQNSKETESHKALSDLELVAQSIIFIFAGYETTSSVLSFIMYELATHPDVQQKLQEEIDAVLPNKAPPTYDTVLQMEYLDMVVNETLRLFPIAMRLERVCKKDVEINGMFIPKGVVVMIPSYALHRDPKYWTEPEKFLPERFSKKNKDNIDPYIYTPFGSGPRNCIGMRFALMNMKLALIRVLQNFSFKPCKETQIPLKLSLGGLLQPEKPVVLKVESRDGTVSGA
Sequence of Cytochrome P450 2C9 (P11712 whole entry): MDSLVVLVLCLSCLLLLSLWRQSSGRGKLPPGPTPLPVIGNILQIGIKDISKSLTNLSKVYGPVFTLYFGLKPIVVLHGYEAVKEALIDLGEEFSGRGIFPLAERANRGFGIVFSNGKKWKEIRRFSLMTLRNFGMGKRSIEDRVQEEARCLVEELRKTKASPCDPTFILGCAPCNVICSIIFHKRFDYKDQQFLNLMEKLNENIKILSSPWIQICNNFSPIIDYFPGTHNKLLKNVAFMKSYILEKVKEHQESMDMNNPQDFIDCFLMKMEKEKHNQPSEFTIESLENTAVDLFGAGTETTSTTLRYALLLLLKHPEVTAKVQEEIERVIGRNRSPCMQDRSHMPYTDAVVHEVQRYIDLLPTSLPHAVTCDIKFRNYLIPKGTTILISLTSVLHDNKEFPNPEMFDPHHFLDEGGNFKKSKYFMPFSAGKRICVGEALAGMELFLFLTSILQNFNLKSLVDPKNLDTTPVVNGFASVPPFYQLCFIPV

Cc1onc(-c2ccc(F)cc2)c1COc1ccc2c(n1)CCN(C(=O)CS(C)(=O)=O)C2
Activity (Rattus norvegicus [1]): Active
clearance [2]: 41.3 mL/min/kg
minimal effective dose (Rattus norvegicus [3]): 3 mg/kg
Activity [4]: -39%
NOAEL [5]: ≥ 30 mg/kg
Activity [6]: -2%
Activity [7]: -41%
Tmax [8]: 30 min
half-life [9]: 70.2 min
Kp [10]: 0.54
hepatocyte CLint [11]: 4 µL/min/1e6 cells
fraction unbound [12]: 0.023
Kp [13]: 0.54
bioavailability [14]: 6.7%
solubility thermodynamic [15]: 142 µM (≈ 65.2 µg/mL)
NOAEL [16]: ≥ 100 mg/kg
bioavailability [17]: 35.8%
Activity [18]: -24%
solubility thermodynamic [19]: 0.081 µM (≈ 0.0372 µg/mL)
Selectivity ratio (Homo sapiens): > 40
IC50 (Cytochrome P450 2C9): > 50 µM
microsomal CLint at 2.5 µM [20]: 6 µL/min/mg
fraction unbound [21]: 0.05
Cp(f) [22]: 6.9 nM
IC50 (Cytochrome P450 3A4): > 50 µM
Ratio [23]: 0.93
fraction unbound [24]: 0.014
fraction unbound [25]: 0.04
Vd [26]: 1.9 L/kg
IC50 (Cytochrome P450 1A2): > 50 µM
NOAEL at 96 h [27]: ≥ 500 mg/kg
NOAEL [28]: ≥ 100 mg/kg
minimal effective dose (Rattus norvegicus [29]): 10 mg/kg
Papp at 1 µM [30]: 43 ×10⁻⁶ cm/s
half-life [31]: 31.8 min
